For one assay, the target named is KRAS G13D (Homo sapiens, UniProt P01116, G13D). As to the kind of experiment: SOS-catalyzed nucleotide exchange assay, KRAS G13D (Procedure A). The note with it: GNE. The format is biochemical. The method, boiled down:
(§1)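 Compounds were preincubated 60 min with a biotinylated RAS·Bodipy-GDP/Tb-streptavidin TR-FRET complex, and exchange was started with human SOS plus 3 mM GTP at RT. RAS/SOS: G12C 3 nM/40 nM, WT and G12D 1 nM/40 nM, all 60 min; G13D 1.25 nM/0 nM, 30 min. 520/495 ratio normalized to DMSO and saturating inhibitor, four-parameter fit.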

A further assay concerns the target T1, PANC08.13 cells (Homo sapiens, UniProt P01116, G12D).
T1 construct: p-ERK/total ERK AlphaSureFire read-out
Kind of assay: Cellular phospho-ERK assay, PANC08.13 cells (KRAS G12D). The format is cell-based. The note with it: 2 hours, read-out: PANCO 813 pERK IC50. The essentials: (§2)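 PANC08.13 or AsPC-1 cells (homozygous KRAS G12D) were seeded overnight, then treated for 2 h at 37 °C with a 10-point 1:3 titration from 30 μM. Lysates were assayed by AlphaLISA SureFire for p-ERK and total ERK. IC50 came from a 4-parameter fit of the p-ERK/total ERK ratio.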

Another assay addresses KRAS G12V (Homo sapiens, UniProt P01116, G12V). As to the kind of experiment: SOS-catalyzed nucleotide exchange assay, KRAS G12V (Procedure A). To be noted: GNE. The assay is classed as biochemical. The essentials:
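Biotinylated KRAS G12V was loaded with Bodipy-GDP alongside Terbium-streptavidin to form a TR-FRET complex, which was preincubated with compounds for 60 minutes in 384-well plates. Human SOS protein and unlabeled GTP were then added for 90 minutes, giving final concentrations of 1.25 nM KRAS-G12V, 160 nM SOS and 3 mM GTP. The 520/495 nm emission ratio was read on an Envision.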

A further assay deals with NRAS (Homo sapiens, UniProt P01111). Kind of assay: SOS-catalyzed nucleotide exchange assay, NRAS (Procedure A). The format is biochemical. The note with it: GNE. The method, boiled down: as §1
Sequence of NRAS (P01111 with tags, fused parts or gaps): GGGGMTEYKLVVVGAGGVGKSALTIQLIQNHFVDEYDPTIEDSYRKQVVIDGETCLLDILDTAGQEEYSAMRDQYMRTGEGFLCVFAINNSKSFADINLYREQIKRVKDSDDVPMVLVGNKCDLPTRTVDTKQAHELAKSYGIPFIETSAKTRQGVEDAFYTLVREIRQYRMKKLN
The next assay addresses KRAS WT (Homo sapiens, UniProt P01116). Kind of assay: SOS-catalyzed nucleotide exchange assay, KRAS WT (Procedure A). The assay is classed as biochemical. The note with it: GNE. The essentials: as §1
For another assay, the target named is HRAS (Homo sapiens, UniProt P01112). Kind of assay: SOS-catalyzed nucleotide exchange assay, HRAS (Procedure A). To be noted: GNE. The format is biochemical. The method, boiled down: as §1
Sequence of HRAS (P01112 with tags, fused parts or gaps): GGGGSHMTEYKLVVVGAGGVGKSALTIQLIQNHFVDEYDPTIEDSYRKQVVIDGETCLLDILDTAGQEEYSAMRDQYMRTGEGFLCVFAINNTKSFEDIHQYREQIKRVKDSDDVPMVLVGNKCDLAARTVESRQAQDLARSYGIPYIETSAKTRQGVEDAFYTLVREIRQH
In another assay the target is T2, AsPC-1 cells (Homo sapiens, UniProt P01116, G12D).
T2 construct: p-ERK/total ERK AlphaSureFire read-out
T2 sequence (P01116 1-188 isoform P01116-2 G12D): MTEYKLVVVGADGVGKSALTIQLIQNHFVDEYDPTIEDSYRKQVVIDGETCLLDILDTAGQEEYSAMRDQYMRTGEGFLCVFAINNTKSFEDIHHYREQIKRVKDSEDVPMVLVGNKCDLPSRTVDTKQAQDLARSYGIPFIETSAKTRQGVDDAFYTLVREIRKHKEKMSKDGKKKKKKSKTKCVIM
Kind of assay: Cellular phospho-ERK assay, AsPC-1 cells (KRAS G12D). The assay is classed as cell-based. To be noted: 2 hours, read-out: AsPC1 pERK IC50. The method, boiled down: as §2

Another assay deals with KRAS G12C (Homo sapiens, UniProt P01116, C118S/C51S/C80L/G12C). As to the kind of experiment: SOS-catalyzed nucleotide exchange assay, KRAS G12C (Procedure A). The format is biochemical. To be noted: GNE. The method, boiled down: as §1
Sequence of KRAS G12C (P01116 with tags, fused parts or gaps isoform P01116-2 G12C/C51S/C80L/C118S): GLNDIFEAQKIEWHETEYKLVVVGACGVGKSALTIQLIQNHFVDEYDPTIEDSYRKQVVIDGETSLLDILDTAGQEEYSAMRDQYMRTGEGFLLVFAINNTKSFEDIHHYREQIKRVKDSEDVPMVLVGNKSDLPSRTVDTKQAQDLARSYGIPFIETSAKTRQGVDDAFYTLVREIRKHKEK
The target of another assay is KRAS G12D (Homo sapiens, UniProt P01116, G12D). As to the kind of experiment: SOS-catalyzed nucleotide exchange assay, KRAS G12D (Procedure A). The assay is classed as biochemical. The note with it: guanine nucleotide exchange (GNE). The essentials:
as §1

Sequence of KRAS WT (P01116 with tags, fused parts or gaps isoform P01116-2): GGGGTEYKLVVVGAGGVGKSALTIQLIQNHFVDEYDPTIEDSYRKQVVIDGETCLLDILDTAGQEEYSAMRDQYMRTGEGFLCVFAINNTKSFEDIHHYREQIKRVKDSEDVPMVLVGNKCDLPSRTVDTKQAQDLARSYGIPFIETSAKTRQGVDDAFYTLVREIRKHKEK
T1 sequence (P01116 1-188 isoform P01116-2 G12D): as the sequence (P01116 1-188 isoform P01116-2 G12D) above
Sequence of KRAS G12D (P01116 with tags, fused parts or gaps isoform P01116-2 G12D): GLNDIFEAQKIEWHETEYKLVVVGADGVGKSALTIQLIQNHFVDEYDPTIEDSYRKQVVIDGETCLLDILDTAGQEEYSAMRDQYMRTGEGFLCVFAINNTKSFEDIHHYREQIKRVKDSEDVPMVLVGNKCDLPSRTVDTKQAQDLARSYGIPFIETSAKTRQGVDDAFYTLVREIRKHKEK
Sequence of KRAS G13D (P01116 with tags, fused parts or gaps isoform P01116-2 G13D): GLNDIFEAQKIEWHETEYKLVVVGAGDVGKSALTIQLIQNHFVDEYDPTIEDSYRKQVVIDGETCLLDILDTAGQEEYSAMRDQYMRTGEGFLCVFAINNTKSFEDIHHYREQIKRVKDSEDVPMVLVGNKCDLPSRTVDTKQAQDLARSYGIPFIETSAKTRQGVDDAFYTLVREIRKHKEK
Sequence of KRAS G12V (P01116 with tags, fused parts or gaps isoform P01116-2 G12V): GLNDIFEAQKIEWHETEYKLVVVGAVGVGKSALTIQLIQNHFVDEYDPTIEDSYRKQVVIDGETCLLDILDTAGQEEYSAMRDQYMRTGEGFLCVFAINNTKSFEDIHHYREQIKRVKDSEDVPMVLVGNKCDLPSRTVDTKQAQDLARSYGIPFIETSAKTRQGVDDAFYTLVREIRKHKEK

As to `Cc1cc2[nH]ncc2c(-c2nccc3c4c(N5C[C@H]6CC[C@@H](C5)N6)nc(OC[C@@]56CCCN5C[C@H](F)C6)nc4n(C)c23)c1C(F)(F)F` (single isomer, unassigned) [Ex-1], the IC50 on KRAS G13D is 1640 nM; at PANC08.13 cells, 139 nM; at KRAS G12V, 3560 nM; against NRAS, greater than 11100 nM; against KRAS WT, 6500 nM; against HRAS it was greater than 11100 nM. The concentration for half-maximal inhibition (IC50) on AsPC-1 cells is 455 nM; on KRAS G12C, 652 nM; against KRAS G12D, 14.3 nM.
As for `Cc1cc2[nH]nc(C#N)c2c(-c2nccc3c4c(N5C[C@H]6CC[C@@H](C5)N6)nc(OC[C@@]56CCCN5C[C@H](F)C6)nc4n(C)c23)c1C(F)(F)F` (single isomer, unassigned) [Ex-2], the half-maximal inhibitory concentration (IC50) is 2360 nM at KRAS G13D; 1630 nM at PANC08.13 cells; greater than 11100 nM against KRAS G12V; greater than 11100 nM at NRAS; greater than 11100 nM on KRAS WT; greater than 11100 nM on HRAS. The IC50 was 15100 nM at AsPC-1 cells, greater than 11100 nM against KRAS G12C and 43.6 nM at KRAS G12D.
With `FC(F)c1c(Cl)cc2[nH]ncc2c1-c1nccc2c1sc1nc(OC[C@@]34CCCN3C[C@H](F)C4)nc(N3C[C@H]4CC[C@@H](C3)N4)c12` [Ex-13, 4-((1R,5S)-3,8-diazabicyclo[3.2.1]octan-3-yl)-8-(6-chloro-5-(difluoromethyl)-1H-indazol-4-yl)-2-(((2R,7aS)-2-fluorotetrahydro-1H-pyrrolizin-7a(5H)-yl)methoxy)pyrido[4′,3′:4,5]thieno [2,3-d]pyrimidine], the IC50 on KRAS G13D was 1830 nM; at PANC08.13 cells, 220 nM; on KRAS G12V it was 8350 nM; on NRAS it was greater than 11100 nM; against KRAS WT it was 9560 nM; against HRAS, greater than 11100 nM. In addition, the IC50 worked out at 582 nM at AsPC-1 cells, 665 nM against KRAS G12C and 13.7 nM at KRAS G12D.
For the compound `Cc1cc2[nH]ncc2c(-c2nccc3c4c(N5C[C@H]6CC[C@@H](C5)N6)nc(OC[C@@]56CCCN5C[C@H](F)C6)nc4n(C)c23)c1C(F)F` (single isomer, unassigned) [Ex-3], the half-maximal inhibitory concentration (IC50) was 3320 nM against KRAS G13D; 244 nM at PANC08.13 cells; 5140 nM against KRAS G12V; greater than 11100 nM on NRAS; 9310 nM against KRAS WT; greater than 11100 nM against HRAS. Moreover, the IC50 was 965 nM at AsPC-1 cells, 919 nM at KRAS G12C and 97.5 nM against KRAS G12D.
On to `C#Cc1cccc2cccc(-c3nccc4c3sc3nc(OC[C@@]56CCCN5C[C@H](F)C6)nc(N5C[C@H]6CC[C@@H](C5)N6)c34)c12` [Ex-10, 4-((1R,5S)-3,8-diaza-bicyclo[3.2.1]oc-tan-3-yl)-8-(8-ethynylnaphthalen-1-yl)-2-(((2R,7aS)-2-fluoro-tetrahydro-1H-pyrrolizin-7a(5H)-yl)methoxy)pyri-do[4′,3′:4,5]thi-eno[2,3-d]py-rimidine], for which the IC50 against KRAS G13D was 604 nM; at PANC08.13 cells it was 192 nM; at KRAS G12V it was 6880 nM; against NRAS it was greater than 11100 nM; at KRAS WT it was 4930 nM; against HRAS it was greater than 11100 nM. The IC50 at AsPC-1 cells stood at 398 nM; on KRAS G12C, 647 nM; against KRAS G12D it was 7.11 nM.
Turning to `C#Cc1cccc2cccc(-c3nccc4c5c(N6C[C@H]7CC[C@@H](C6)N7)nc(OC[C@@]67CCCN6C[C@H](F)C7)nc5n(C)c34)c12` [Ex-9, 4-((1R,5S)-3,8-diazabicyclo[3.2.1]octan-3-yl)-8-(8-ethynylnaphthalen-1-yl)-2-(((2R,7aS)-2-fluoro-tetrahydro-1H-pyrrolizin-7a(5H)-yl)methoxy)-9-methyl-9H-py-rido[4′,3′:4,5]pyrro-lo[2,3-d]pyrimidine], the IC50 against KRAS G13D is 451 nM; on PANC08.13 cells, 315 nM; on NRAS, greater than 11100 nM; against HRAS, greater than 11100 nM; on AsPC-1 cells it was 490 nM; on KRAS G12C, 1550 nM. Moreover, on KRAS G12D, the IC50 is 40.7 nM.
As for `Cc1cc2[nH]ncc2c(-c2nccc3c2sc2nc(OC[C@@]45CCCN4C[C@H](F)C5)nc(N4C[C@H]5CC[C@@H](C4)N5)c23)c1C(F)(F)F` [Ex-12, 4-((1R,5S)-3,8-diazabicyclo[3.2.1]octan-3-yl)-2-(((2R,7aS)-2-fluorotetrahydro-1H-pyrrolizin-7a(5H)-yl)methoxy)-8-(6-methyl-5-(trifluoromethyl)-1H-indazol-4-yl)pyrido[4′,3′:4,5]thieno[2,3-d]pyrimidine], the IC50 against KRAS G13D was 723 nM; at PANC08.13 cells, 88.9 nM; against KRAS G12V, 2070 nM; on NRAS it was greater than 11100 nM; on KRAS WT, 5810 nM; at HRAS, greater than 11100 nM. The results for the half-inhibitory concentration (IC50) on AsPC-1 cells, at KRAS G12C and on KRAS G12D were 200 nM, 589 nM and 6.41 nM, respectively.
As to `Cc1cc2[nH]nc(C#N)c2c(-c2nccc3c2sc2nc(OC[C@@]45CCCN4C[C@H](F)C5)nc(N4C[C@H]5CC[C@@H](C4)N5)c23)c1C(F)(F)F` [Ex-19, 4-(4-((1R,5S)-3,8-diazabicy-clo[3.2.1]oc-tan-3-yl)-2-(((2R,7aS)-2-fluoro-tetrahydro-1H-pyrrolizin-7a(5H)-yl)methoxy)pyri-do[4′,3′:4,5]thieno [2,3-d]pyrimidin-- 8-yl)-6-methyl-5-(trifluoromethyl)-- 1H-indazole-3-carbonitrile], the IC50 against KRAS G13D is 1050 nM; at PANC08.13 cells, 250 nM; on KRAS G12V, greater than 11100 nM; against NRAS, greater than 11100 nM; on KRAS WT, 9940 nM; at HRAS, greater than 11100 nM. For the same compound, the results for the IC50 on AsPC-1 cells, at KRAS G12C and against KRAS G12D were 2200 nM, 755 nM and 23.4 nM, respectively.
As for `C#Cc1c(F)ccc2cc(O)cc(-c3nccc4c5c(N6C[C@H]7CC[C@@H](C6)N7)nc(OC[C@@]67CCCN6C[C@H](F)C7)nc5n(C)c34)c12` [Ex-8, 4-(4-((1R,5S)-3,8-diazabicyclo[3.2.1]octan-3-yl)-2-(((2R,7aS)-2-fluorotetrahydro-1H-pyrrolizin-7a(5H)-yl)methoxy)-9-methyl-9H-pyrido[4′,3′:4,5]pyrrolo[2,3-d]pyrimidin-8-yl)-5-ethynyl-6-fluoronaphthalen-2-ol], the IC50 on KRAS G13D was 17.8 nM; on PANC08.13 cells, 63.8 nM; against KRAS G12V, 62.6 nM; against NRAS it was greater than 11100 nM; against KRAS WT it was 48.1 nM; against HRAS it was greater than 11100 nM. In addition, the IC50 on AsPC-1 cells is 138 nM; against KRAS G12C, 25.2 nM; against KRAS G12D, 1.81 nM.

As a reminder, the IC50 is the concentration needed to halve the response being measured.
